Molecules are shown by their SMILES. Structures can show the parent of a compound that is named as a salt. A value given as a limit tells only on which side of the number the result lay.

Experimental findings from the supplement of paper PMC4723716 are described below.

This test concerns Plasmodium falciparum NF54 gametocytes. The following applies: 384, incubation time: 72 h. The method, then: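 Known antimalarials and MMV control compounds in dose response against each stage (I–V) […] The fitted EC50 is reported as IC50 in µM; '>' marks the top dose reached without a curve.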
Setting [1] is: gametocyte stage: Stage I Dose Response IC50 (µM), assay protocol: SaLSSA.
[2] abbreviates: gametocyte stage: Stage II Dose Response IC50 (µM), assay protocol: SaLSSA.
Where [3] appears, read: gametocyte stage: Stage III Dose Response IC50 (µM), assay protocol: SaLSSA.
Where [4] appears, read: gametocyte stage: Stage IV Dose Response IC50 (µM), assay protocol: SaLSSA.
The mark [5] stands for this setting: gametocyte stage: Stage V Dose Response IC50 (µM), assay protocol: SaLSSA.
The mark [6] stands for this setting: gametocyte stage: Stage I Dose Response IC50 (µM), assay protocol: TSSA.
Setting [7] is: gametocyte stage: Stage II Dose Response IC50 (µM), assay protocol: TSSA.
Setting [8] is: gametocyte stage: Stage III Dose Response IC50 (µM), assay protocol: TSSA.
Setting [9] is: gametocyte stage: Stage IV Dose Response IC50 (µM), assay protocol: TSSA.
Where [10] appears, read: gametocyte stage: Stage V Dose Response IC50 (µM), assay protocol: TSSA.

On to `O=C1C(O)=C([C@H]2CC[C@H](c3ccc(Cl)cc3)CC2)C(=O)c2ccccc21` [Atovaquone], for which the “IC50 of gametocyte viability” value runs as follows: under setting [1], over 12.5 µM; under setting [2], over 12.5 µM; under setting [3], over 12.5 µM; under setting [4], 2.37 µM; under setting [5], over 12.5 µM.
For `OC(c1cc(C(F)(F)F)nc2c(C(F)(F)F)cccc12)C1CCCCN1` (racemic) [Mefloquine (Racemic)], the “IC50 of gametocyte viability” value under setting [6] stood at 0.0569 µM; the “IC50 of gametocyte viability” value under setting [7] was determined as 0.117 µM; the “IC50 of gametocyte viability” value under setting [8] was found to be 0.127 µM; the “IC50 of gametocyte viability” value under setting [9] is 2.08 µM; the “IC50 of gametocyte viability” value under setting [10] amounted to 5.77 µM.
On to `Cc1cc(NS(=O)(=O)c2ccc(N)cc2)no1` [Sulfamethoxazole], for which the “IC50 of gametocyte viability” value was over 12.5 µM under setting [1]; over 12.5 µM under setting [2]; over 12.5 µM under setting [3]; over 12.5 µM under setting [4]; over 12.5 µM under setting [5].
For the compound `Nc1ccc(S(=O)(=O)Nc2ncccn2)cc1` [Sulfadiazine], the “IC50 of gametocyte viability” value under setting [6] was over 12.5 µM; the “IC50 of gametocyte viability” value under setting [7] is over 12.5 µM; the “IC50 of gametocyte viability” value under setting [8] is over 12.5 µM; the “IC50 of gametocyte viability” value under setting [9] is over 12.5 µM; the “IC50 of gametocyte viability” value under setting [10] is over 12.5 µM.
Turning to `CC1(C)N=C(N)N=C(N)N1c1ccc(Cl)cc1` [Cycloguanil], the “IC50 of gametocyte viability” value is, setting by setting: under setting [1], over 12.5 µM; under setting [2], over 12.5 µM; under setting [3], over 12.5 µM; under setting [4], over 12.5 µM; under setting [5], over 12.5 µM.
For `CCN(CC)CCCNc1ccnc2cc(Cl)ccc12` [AQ-13], the “IC50 of gametocyte viability” value is 0.0426 µM under setting [1]; 0.0335 µM under setting [2]; 0.484 µM under setting [3]; 6.47 µM under setting [4]; 6.05 µM under setting [5].
Take `CCN(CC)CCCC(C)Nc1cc(OC)cc2cccnc12` (stereo not given) [Pamaquine (diethlyprimaquine)]: the “IC50 of gametocyte viability” value reads like this: under setting [1], 1.68 µM; under setting [6], 1.67 µM; under setting [2], 1.4 µM; under setting [7], 2.87 µM; under setting [3], 2.41 µM; under setting [8], 5.15 µM. The “IC50 of gametocyte viability” value came out at 2.82 µM under setting [4], 5.28 µM under setting [9], 2.53 µM under setting [5] and 9.38 µM under setting [10].
On to `CC(C)(N)CNC(=O)CC1CCC2(CC1)OOC1(O2)C2CC3CC(C2)CC1C3` (stereo not given), for which the “IC50 of gametocyte viability” value is 0.00821 µM under setting [6]; 0.00599 µM under setting [7]; 0.00837 µM under setting [8]; 0.00742 µM under setting [9]; over 12.5 µM under setting [10].
Consider `CC[C@H]1OC(=O)[C@H](C)[C@H](O[C@H]2C[C@@](C)(OC)[C@@H](O)[C@H](C)O2)[C@H](C)[C@@H](O[C@@H]2O[C@H](C)C[C@H](N(C)C)[C@H]2O)[C@](C)(O)C[C@@H](C)CN(C)[C@H](C)[C@H](O)[C@]1(C)O` [Azithromycin], for which the “IC50 of gametocyte viability” value is over 12.5 µM under setting [1]; over 12.5 µM under setting [2]; over 12.2 µM under setting [3]; over 12.5 µM under setting [4]; over 12.5 µM under setting [5].
Take `N=C(N)c1ccc(OCCCCCOc2ccc(C(=N)N)cc2)cc1` [Pentamidine]: the “IC50 of gametocyte viability” value was 0.397 µM under setting [1]; 0.591 µM under setting [2]; 0.697 µM under setting [3]; 0.813 µM under setting [4]; 2.14 µM under setting [5].
On to `C[C@H]1c2cccc(O)c2C(=O)C2=C(O)[C@]3(O)C(=O)C(C(N)=O)=C(O)[C@@H](N(C)C)[C@@H]3[C@@H](O)[C@@H]21` [Doxycyclin], for which the “IC50 of gametocyte viability” value is, setting by setting: under setting [1], over 12.5 µM; under setting [2], over 12.5 µM; under setting [3], over 12.5 µM; under setting [4], over 12.5 µM; under setting [5], over 12.5 µM.
With `C=C[C@H]1CN2CC[C@H]1C[C@H]2[C@H](O)c1ccnc2ccc(OC)cc12` [Quinine sulfate dihydrate (coeff. 2)], the “IC50 of gametocyte viability” value by setting is: under setting [6], 0.918 µM; under setting [7], 0.767 µM; under setting [8], 1.58 µM; under setting [9], over 12.5 µM; under setting [10], over 12.5 µM.
Turning to `COc1cc(C)c2c(Oc3cccc(C(F)(F)F)c3)c(OC)cc(NC(C)CCCN)c2n1` (stereo not given) [Tafenoquine], the “IC50 of gametocyte viability” value is, setting by setting: under setting [1], 4.56 µM; under setting [2], 3.68 µM; under setting [3], 3.74 µM; under setting [4], 3.48 µM; under setting [5], 2.45 µM.
In the case of `C[C@@H]1C[C@@H]([C@H](O)CC2CC(=O)NC(=O)C2)C(=O)[C@@H](C)C1` [Cycloheximide] [listing 1 of 2 here], the “IC50 of gametocyte viability” value is, setting by setting: under setting [6], 1.23 µM; under setting [7], 2.46 µM; under setting [8], 2.51 µM; under setting [9], 1.92 µM; under setting [10], 4.62 µM.
On to `CC(C)(N)CNC(=O)C[C@H]1CC[C@]2(CC1)OOC1(O2)C2CC3CC(C2)CC1C3` (stereo not given in full), for which the “IC50 of gametocyte viability” value reads like this: under setting [1], 0.00769 µM; under setting [2], 0.00395 µM; under setting [3], 0.00158 µM; under setting [4], 0.00787 µM; under setting [5], over 12.5 µM.
`C[C@@H]1C[C@@H]([C@H](O)CC2CC(=O)NC(=O)C2)C(=O)[C@@H](C)C1` [Cycloheximide] [listing 2 of 2 here]: the “IC50 of gametocyte viability” value by setting is: under setting [1], 1.92 µM; under setting [2], 0.64 µM; under setting [3], 0.913 µM; under setting [4], 0.477 µM; under setting [5], 2.69 µM.
In the case of `CCN(CCO)CCCC(C)Nc1ccnc2cc(Cl)ccc12` (stereo not given) [Hydroxychloroquine], the “IC50 of gametocyte viability” value by setting is: under setting [1], 0.107 µM; under setting [6], 0.104 µM; under setting [2], 0.131 µM; under setting [7], 0.139 µM; under setting [3], over 4.49 µM; under setting [8], over 6.25 µM. In addition, the “IC50 of gametocyte viability” value is over 6.25 µM under setting [4], over 6.25 µM under setting [9], over 6.25 µM under setting [5] and over 6.25 µM under setting [10].
Take `C[C@H]1[C@@H](O)O[C@@H]2O[C@@]3(C)CC[C@H]4[C@H](C)CC[C@@H]1[C@@]24OO3` [Artenimol (Dihydro artemisinin)]: the “IC50 of gametocyte viability” value by setting is: under setting [6], 0.00685 µM; under setting [7], 0.00766 µM; under setting [8], 0.0152 µM; under setting [9], 0.0403 µM; under setting [10], over 12.5 µM.
As for `C[C@H]1[C@H](OC(=O)CCC(=O)O)O[C@@H]2O[C@@]3(C)CC[C@H]4[C@H](C)CC[C@@H]1[C@@]24OO3` [Artesunate], the “IC50 of gametocyte viability” value under setting [1] was determined as 0.00773 µM; the “IC50 of gametocyte viability” value under setting [2] was determined as 0.00351 µM; the “IC50 of gametocyte viability” value under setting [3] came to 0.0126 µM; the “IC50 of gametocyte viability” value under setting [4] was determined as 0.0491 µM; the “IC50 of gametocyte viability” value under setting [5] is over 10.6 µM.
In the same order, the values of `Nc1ccc(S(=O)(=O)c2ccc(N)cc2)cc1` [Dapsone] are over 12.5 µM, over 12.5 µM, over 12.5 µM, over 12.5 µM and over 12.5 µM.
As to `COc1ccc2nc3cc(Cl)ccc3c(Nc3cc(CN4CCCC4)c(O)c(CN4CCCC4)c3)c2n1` [Pyronaridine phosphate], the “IC50 of gametocyte viability” value is 0.0101 µM under setting [6]; 0.0125 µM under setting [7]; 0.315 µM under setting [8]; 3.82 µM under setting [9]; 3.16 µM under setting [10].
As for `CCC[C@@H]1C[C@@H](C(=O)N[C@@H]([C@H]2O[C@H](SC)[C@H](O)[C@@H](O)[C@H]2O)[C@H](C)Cl)N(C)C1` [clindamycin], the “IC50 of gametocyte viability” value is, setting by setting: under setting [1], over 12.5 µM; under setting [2], over 12.5 µM; under setting [3], over 12.5 µM; under setting [4], over 12.5 µM; under setting [5], over 12.5 µM.
`COc1cc(Cc2cnc(N)nc2N)cc(OC)c1OC` [Trimethoprim]: the “IC50 of gametocyte viability” value by setting is: under setting [1], over 12.5 µM; under setting [2], over 12.5 µM; under setting [3], over 12.5 µM; under setting [4], over 12.5 µM; under setting [5], over 12.5 µM.
For `CO[C@H]1O[C@@H]2O[C@@]3(C)CC[C@H]4[C@H](C)CC[C@@H]([C@H]1C)[C@@]24OO3` [Artemether], the “IC50 of gametocyte viability” value stood at 0.0159 µM under setting [1]; 0.0183 µM under setting [6]; 0.00459 µM under setting [2]; 0.0125 µM under setting [7]; 0.00617 µM under setting [3]; 0.0175 µM under setting [8]. Besides, the “IC50 of gametocyte viability” value is, setting by setting: under setting [4], 0.019 µM; under setting [9], 0.0184 µM; under setting [5], over 12.5 µM; under setting [10], over 12.5 µM.
